Source: patent US7786163B2, “Constrained cyano compounds” (Forest Laboratories Holdings Limited (BM), priority 2004, dated 2010)
Counter-ions that a name gives are not always drawn.

Tests used:
Assay type in all cases: biochemical
human FAP = biological target: T1, human FAP (Homo sapiens, UniProt Q12884); test: FAP inhibition assay (Ala-Pro AMC), selectivity vs DPP-IV; details: selectivity for DPP-IV relative to FAP
T1 construct: The full length cDNAs for human DPP-VII, DPP-VIII, DPP-IX, and FAP were obtained from Open Biosystems; 6xHis (N); made in house; host or cells: S9 (Sf9) insect cells, baculovirus (pFastBac, Bac-to-Bac)
T1 sequence (Q12884 1-760): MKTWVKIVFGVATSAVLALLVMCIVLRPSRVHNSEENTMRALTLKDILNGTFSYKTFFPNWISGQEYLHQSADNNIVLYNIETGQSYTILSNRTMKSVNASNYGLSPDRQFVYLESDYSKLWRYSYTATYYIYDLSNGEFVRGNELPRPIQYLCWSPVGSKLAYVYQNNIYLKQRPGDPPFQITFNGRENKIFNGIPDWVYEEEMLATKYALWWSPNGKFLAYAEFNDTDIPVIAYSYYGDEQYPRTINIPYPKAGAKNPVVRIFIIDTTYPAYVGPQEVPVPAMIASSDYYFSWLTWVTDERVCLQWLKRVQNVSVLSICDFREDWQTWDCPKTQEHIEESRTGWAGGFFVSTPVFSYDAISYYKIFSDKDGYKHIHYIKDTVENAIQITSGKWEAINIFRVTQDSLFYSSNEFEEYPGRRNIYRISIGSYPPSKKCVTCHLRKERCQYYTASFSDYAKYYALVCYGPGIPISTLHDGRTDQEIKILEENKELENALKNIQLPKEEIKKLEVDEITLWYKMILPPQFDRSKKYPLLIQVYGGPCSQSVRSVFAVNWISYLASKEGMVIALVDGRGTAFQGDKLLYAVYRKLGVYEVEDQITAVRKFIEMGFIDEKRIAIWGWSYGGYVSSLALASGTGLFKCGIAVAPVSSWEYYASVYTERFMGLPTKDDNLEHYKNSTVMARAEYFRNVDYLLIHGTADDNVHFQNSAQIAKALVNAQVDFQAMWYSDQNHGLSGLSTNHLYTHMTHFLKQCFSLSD
Procedure: (§1) Materials. S9 insect cells and Sf-900 II SFM media were from Invitrogen. Anti-FLAG M2 immunoaffinity gel was from Sigma. Gly-Pro-AMC, Lys-Pro AMC, and Ala-Pro AMC were from Enzyme Systems. IC50 calculations were performed by non-linear regression analysis using Prism software (GraphPad).
(§2) Preparation of DPP-VII DPP-VIII DPP-IX, and FAP baculovirus constructs. The full length cDNAs for human DPP-VII, DPP-VIII, DPP-IX, and FAP were obtained from Open Biosystems. The cDNAs were cloned into the pFastBac vector with the addition of an N-terminal FLAG tag on DPP-VII, C-terminal 6× His tags on DPP-VIII and DPP-IX, and an N-terminal 6× His tag on FAP (Sun 2002, Qi 2003, and Chen 2004). Baculovirus was prepared using the Bac-to-Bac Baculovirus Expression System (Invitrogen). The cDNAs in the final baculovirus constructs were sequence verified.
(§3) Baculovirus expression. S9 cells were grown to mid log phase at 27C with shaking at 125 RPM and then adjusted to 2×10E6/ml just prior to baculovirus infection. Infection with DPP-VII, DPP-VIII, DPP-IX, and FAP baculoviral constructs were all performed at an MOI of 4. The infected cells were grown for 48 hours and the cell pellets harvested and frozen until purification. DPP-VII was purified using anti-FLAG immunoaffinity gel according to the manufacturer's instructions. DPP-VIII, DPP-IX, and FAP were purified using a B-PER 6× His Fusion Protein Column Purification Kit from Pierce.
(§4) C50 assay. Recombinant DPPs were diluted in reaction buffer to give fluorescence values of 5000-20000 counts in the “enzyme only wells” 20 min after addition of substrate at 27° C. Reaction buffers were 25 mM (2-(4-Morpholino)-Ethane Sulfonic Acid), pH 5.5 for DPP-VII, 25 mM Tris, pH 8, 1% Triton X-100, 100 mM NaCl for DPP-VIII, and 25 mM Tris pH 8 for DPP-IX and FAP. Test wells in a 96-well microtiter plate contained 88 uL of diluted DPP and 2.5 ul of titrated compound in 50 mM glycine, pH 2.6. “Enzyme only” wells contained 88 uL of diluted DPP and 2.5 ul of glycine buffer. “No enzyme” wells contained 88 uL of reaction buffer without DPP and 2.5 ul of glycine buffer. All assays were done in triplicate. The plate was incubated at 27° C. for 10 min and then cooled on ice for 10 min. Ten microliters of substrate diluted in reaction buffer (40 uM final concentration) without Triton or NaCl were then added to all wells followed by incubation at 27C for 20 min. Substrates were Lys-Pro AMC for DPP-VII, and Ala-Pro AMC for DPP-VIII, DPP-IX, and FAP. Fluorescence in each well was measured at settings of 380/460 nm.
(§5) Compounds of the invention were tested for inhibition of DPP-IV according to Example 4 and DPP-VII, VIII, IX and FAP according to the present methods.

human DPP-VIII = biological target: T2, human DPP-VIII (Homo sapiens, UniProt Q6V1X1); test: DPP-VIII inhibition assay (Ala-Pro AMC), selectivity vs DPP-IV; details: selectivity for DPP-IV relative to DPP-VIII
T2 construct: The full length cDNAs for human DPP-VII, DPP-VIII, DPP-IX, and FAP were obtained from Open Biosystems; 6xHis (C); made in house; host or cells: S9 (Sf9) insect cells, baculovirus (pFastBac, Bac-to-Bac)
Procedure: as §1, §2, §3, §4, §5

human DPP-VII = biological target: T3, human DPP-VII (Homo sapiens, UniProt Q9UHL4); test: DPP-VII inhibition assay (Lys-Pro AMC), selectivity vs DPP-IV; details: selectivity for DPP-IV relative to DPP-VII
T3 construct: The full length cDNAs for human DPP-VII, DPP-VIII, DPP-IX, and FAP were obtained from Open Biosystems; FLAG (N); made in house; host or cells: S9 (Sf9) insect cells, baculovirus (pFastBac, Bac-to-Bac)
Procedure: as §1, §2, §3, §4, §5

human DPP-IX = biological target: T4, human DPP-IX (Homo sapiens, UniProt Q86TI2); test: DPP-IX inhibition assay (Ala-Pro AMC), selectivity vs DPP-IV; details: selectivity for DPP-IV relative to DPP-IX
T4 construct: The full length cDNAs for human DPP-VII, DPP-VIII, DPP-IX, and FAP were obtained from Open Biosystems; 6xHis (C); made in house; host or cells: S9 (Sf9) insect cells, baculovirus (pFastBac, Bac-to-Bac)
Procedure: as §1, §2, §3, §4, §5

T4 sequence (Q86TI2 whole entry): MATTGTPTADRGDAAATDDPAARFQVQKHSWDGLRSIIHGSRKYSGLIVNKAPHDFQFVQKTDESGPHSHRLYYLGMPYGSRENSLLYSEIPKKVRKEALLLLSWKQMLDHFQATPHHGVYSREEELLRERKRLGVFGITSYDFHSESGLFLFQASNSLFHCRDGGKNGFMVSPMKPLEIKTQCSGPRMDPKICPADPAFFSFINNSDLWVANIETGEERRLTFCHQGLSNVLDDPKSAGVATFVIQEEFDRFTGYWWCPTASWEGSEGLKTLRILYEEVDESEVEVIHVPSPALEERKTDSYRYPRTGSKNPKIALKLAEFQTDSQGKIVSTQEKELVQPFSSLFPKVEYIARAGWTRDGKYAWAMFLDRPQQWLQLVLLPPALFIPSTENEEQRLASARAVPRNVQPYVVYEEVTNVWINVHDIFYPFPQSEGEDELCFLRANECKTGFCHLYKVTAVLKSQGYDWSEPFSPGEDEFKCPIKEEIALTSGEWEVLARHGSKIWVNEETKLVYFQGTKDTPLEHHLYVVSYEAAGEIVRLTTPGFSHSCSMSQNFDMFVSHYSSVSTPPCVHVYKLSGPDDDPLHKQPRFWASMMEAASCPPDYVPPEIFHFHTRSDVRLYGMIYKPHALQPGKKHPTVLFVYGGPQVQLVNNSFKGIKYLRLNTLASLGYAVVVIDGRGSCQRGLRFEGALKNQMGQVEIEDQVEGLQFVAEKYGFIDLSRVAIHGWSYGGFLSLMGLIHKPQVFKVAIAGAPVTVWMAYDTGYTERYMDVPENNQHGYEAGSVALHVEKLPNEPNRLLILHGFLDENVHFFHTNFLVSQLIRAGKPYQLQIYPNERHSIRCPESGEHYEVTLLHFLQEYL
T2 sequence (Q6V1X1 whole entry): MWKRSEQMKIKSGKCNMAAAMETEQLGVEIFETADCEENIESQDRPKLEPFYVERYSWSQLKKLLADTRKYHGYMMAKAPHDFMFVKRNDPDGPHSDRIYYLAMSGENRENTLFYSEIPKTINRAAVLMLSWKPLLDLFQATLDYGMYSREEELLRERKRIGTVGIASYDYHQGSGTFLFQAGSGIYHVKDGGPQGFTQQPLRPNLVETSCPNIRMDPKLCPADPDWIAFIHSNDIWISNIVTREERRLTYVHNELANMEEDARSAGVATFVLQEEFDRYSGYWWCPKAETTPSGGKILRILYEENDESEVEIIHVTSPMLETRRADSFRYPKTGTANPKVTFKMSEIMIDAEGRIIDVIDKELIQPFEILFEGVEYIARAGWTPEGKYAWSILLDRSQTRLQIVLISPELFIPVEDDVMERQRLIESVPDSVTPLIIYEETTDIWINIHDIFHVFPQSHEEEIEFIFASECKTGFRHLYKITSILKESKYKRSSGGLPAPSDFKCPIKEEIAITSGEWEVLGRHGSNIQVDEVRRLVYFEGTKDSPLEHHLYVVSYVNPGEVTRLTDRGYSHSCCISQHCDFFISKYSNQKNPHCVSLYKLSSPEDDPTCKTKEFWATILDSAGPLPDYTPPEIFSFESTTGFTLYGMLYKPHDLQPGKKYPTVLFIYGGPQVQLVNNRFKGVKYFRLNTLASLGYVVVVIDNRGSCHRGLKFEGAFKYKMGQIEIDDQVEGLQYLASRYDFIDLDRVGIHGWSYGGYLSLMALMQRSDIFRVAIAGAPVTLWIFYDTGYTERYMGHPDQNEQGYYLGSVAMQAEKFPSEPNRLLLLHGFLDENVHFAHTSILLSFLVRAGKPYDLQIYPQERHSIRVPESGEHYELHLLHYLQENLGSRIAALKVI

SMILES	Selectivity Ratios FAP (human FAP)	Selectivity Ratios DPP-VIII (human DPP-VIII)	Selectivity Ratios DPP-VII (human DPP-VII)	Selectivity Ratios DPP-IX (human DPP-IX)
Cl.N#C[C@@H]1CS[C@H]2C[C@](N)(CCc3ccccc3)C(=O)N12 [Compound 27, 6-Amino-5-oxo-6-phenethyl-hexahydro-pyrrolo[2,1-b]thiazole-3-carbonitrile hydrochloride]	B (10 < B < 100)	A (A ≦ 10)	A (A ≦ 10)	A (A ≦ 10)
Cl.N#C[C@@H]1CS[C@H]2C[C@](N)(c3ccccc3)C(=O)N12 [Compound 31, 6-Amino-5-oxo-6-phenyl-hexahydro-pyrrolo[2,1-b]thiazole-3-carbonitrile hydrochloride]	C (C ≧ 100)	C (C ≧ 100)	C (C ≧ 100)	B (10 < B < 100)
N#CC1CSC2CC(N)(Cc3ccccc3)C(=O)N12 (centres unmarked) [Compound 28, 6-Amino-6-benzyl-5-oxo-hexahydro-pyrrolo[2,1-b]thiazole-3-carbonitrile hydrochloride]	B (10 < B < 100)	B (10 < B < 100)	B (10 < B < 100)	B (10 < B < 100)
Cl.N#C[C@@H]1CS[C@H]2C[C@@H](N)C(=O)N12 [Compound 7, 6-Amino-5-oxo-hexahydro-pyrrolo[2,1-b]thiazole-3-carbonitrile]	C (C ≧ 100)	B (10 < B < 100)	C (C ≧ 100)	A (A ≦ 10)
Cl.N#C[C@@H]1CS[C@H]2C[C@](N)(CC3CCCCC3)C(=O)N12 [Compound 29, 6-Amino-6-cyclohexylmethyl-5-oxo-hexahydro-pyrrolo[2,1-b]thiazole-3-carbonitrile hydrochloride]	C (C ≧ 100)	A (A ≦ 10)	A (A ≦ 10)	A (A ≦ 10)
Cl.N#C[C@@H]1CS[C@H]2C[C@@](N)(C3CCCC3)C(=O)N12 [Compound 33]	B (10 < B < 100)	B (10 < B < 100)	B (10 < B < 100)	A (A ≦ 10)
CC[C@@]1(N)C[C@@H]2SC[C@@H](C#N)N2C1=O.Cl [Compound 21, 6-Amino-6-ethyl-5-oxo-hexahydro-pyrrolo[2,1-b]thiazole-3-carbonitrile hydrochloride]	C (C ≧ 100)	B (10 < B < 100)	C (C ≧ 100)	A (A ≦ 10)
CC[C@H](C)[C@@]1(N)C[C@@H]2SC[C@@H](C#N)N2C1=O.Cl [Compound 26, 6-Amino-6-sec-butyl-5-oxo-hexahydro-pyrrolo[2,1-b]thiazole-3-carbonitrile hydrochloride]	C (C ≧ 100)	B (10 < B < 100)	B (10 < B < 100)	A (A ≦ 10)
Cl.N#C[C@@H]1CS[C@H]2C[C@](N)(c3ccc(F)cc3)C(=O)N12 [Compound 30, 6-Amino-6-(4-fluoro-phenyl)-5-oxo-hexahydro-pyrrolo[2,1-b]thiazole-3-carbonitrile hydrochloride]	B (10 < B < 100)	B (10 < B < 100)	B (10 < B < 100)	A (A ≦ 10)
Cl.N#C[C@@H]1CS[C@H]2C[C@](N)(C3CCCCC3)C(=O)N12 [Compound 24, 6-Amino-6-cyclohexyl-5-oxo-hexahydro-pyrrolo[2,1-b]thiazole-3-carbonitrile hydrochloride]	C (C ≧ 100)	A (A ≦ 10)	B (10 < B < 100)	A (A ≦ 10)
CC(C)[C@@]1(N)C[C@@H]2SC[C@@H](C#N)N2C1=O.Cl [Compound 22, 6-Amino-6-isopropyl-5-oxo-hexahydro-pyrrolo[2,1-b]thiazole-3-carbonitrile hydrochloride]	C (C ≧ 100)	B (10 < B < 100)	C (C ≧ 100)	A (A ≦ 10)
Cl.N#C[C@@H]1CS[C@H]2C[C@](N)(C3CCCC3)C(=O)N12 [Compound 23, 6-Amino-6-cyclopentyl-5-oxo-hexahydro-pyrrolo[2,1-b]thiazole-3-carbonitrile hydrochloride]	C (C ≧ 100)	A (A ≦ 10)	B (10 < B < 100)	A (A ≦ 10)
CC(C)C[C@@]1(N)C[C@@H]2SC[C@@H](C#N)N2C1=O.Cl [Compound 25, 6-Amino-6-isobutyl-5-oxo-hexahydro-pyrrolo[2,1-b]thiazole-3-carbonitrile hydrochloride]	C (C ≧ 100)	B (10 < B < 100)	A (A ≦ 10)	A (A ≦ 10)
Cl.N#C[C@@H]1CS[C@H]2C[C@@](N)(c3ccccc3)C(=O)N12 [Compound 34]	C (C ≧ 100)	B (10 < B < 100)	C (C ≧ 100)	A (A ≦ 10)
